SMILES strings stand for the structures. pIC50: −log10 of the molar value.

Results on 66 compounds are retold here after patent US10138229B2, “Heteroaromatic compounds as BTK inhibitors” (Boehringer Ingelheim International GmbH, priority 2012, dated 2018).

In this experiment the target is full-length human His-tagged BTK (Homo sapiens (Human), UniProt Q06187). The experiment is described as follows: BTK Assay (HTRF, Cisbio KinEASE-TK). To be noted: 6 nM BTK, 30 uM ATP, 15 min preincubation. In kind it is biochemical.
Sequence of full-length human His-tagged BTK (Q06187 whole entry): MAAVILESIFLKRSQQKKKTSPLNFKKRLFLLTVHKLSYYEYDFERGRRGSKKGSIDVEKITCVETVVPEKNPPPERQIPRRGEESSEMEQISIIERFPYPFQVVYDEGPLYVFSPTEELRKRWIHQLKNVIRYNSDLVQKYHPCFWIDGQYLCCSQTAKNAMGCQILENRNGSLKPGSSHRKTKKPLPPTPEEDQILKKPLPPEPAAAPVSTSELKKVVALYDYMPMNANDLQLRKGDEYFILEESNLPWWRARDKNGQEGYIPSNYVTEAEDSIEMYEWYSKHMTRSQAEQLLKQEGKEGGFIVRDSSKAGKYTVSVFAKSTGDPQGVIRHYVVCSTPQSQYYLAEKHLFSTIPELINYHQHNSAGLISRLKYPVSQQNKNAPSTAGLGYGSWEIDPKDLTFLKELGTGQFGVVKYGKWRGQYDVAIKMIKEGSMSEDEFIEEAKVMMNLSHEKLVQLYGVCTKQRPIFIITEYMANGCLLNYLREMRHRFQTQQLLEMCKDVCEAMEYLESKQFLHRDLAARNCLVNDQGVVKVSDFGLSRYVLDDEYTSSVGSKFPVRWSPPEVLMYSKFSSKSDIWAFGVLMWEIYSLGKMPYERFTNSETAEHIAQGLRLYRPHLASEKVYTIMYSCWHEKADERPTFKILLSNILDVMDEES
Description: An HTRF assay (Cisbio KinEASE-TK cat #62TKOPEC) was performed to quantitate the ability of test compounds to inhibit BTK mediated phosphorylation of substrate. Assays were assembled in 384 well plates where 6 nM of full-length human His-tagged BTK (Life Technologies cat # PV3587) and test compound at varying concentrations were preincubated for 15 minutes at 28° C. Then, 1 uM of TK substrate-biotin and 30 uM ATP were added and incubated for an additional 30 minutes at 28° C.
As to `C=CC(=O)N1CC2(CC(n3nc(-c4ccc(C(F)(F)F)c(F)c4)c(C(N)=O)c3N)C2)C1` [Example 142], the pIC50 (in general, −log10 of the IC50, conventionally taken in molar units) was 7.54. `C=CC(=O)N1CCC[C@H]1Cn1cc(C(N)=O)c(-c2ccc(Oc3ccccc3)cc2)n1` [Example 33]: the pIC50 was 8.01. Consider `CC#CC(=O)N1CCC2(CC1)CC(n1nc(-c3ccc(Oc4ccccc4)cc3)c(C(N)=O)c1N)C2` [Example 83], for which the negative-log IC50 (pIC50) was 8.68. `C=CC(=O)N1CC[C@]2(C1)C[C@H](n1nc(-c3ccc(C(F)(F)F)cc3)c(C(N)=O)c1N)C2` [Example 130] showed a pIC50 of 8.19.

Turning to `CC#CC(=O)N1CC[C@]2(C1)C[C@H](n1nc(-c3ccc(Oc4ccccc4)cc3)c(C(N)=O)c1N)C2` [Example 91], the pIC50 was 9.10.

Compound `C=CC(=O)N1CC[C@]2(C1)C[C@H](n1nc(-c3cccc(OC)c3)c(C(N)=O)c1N)C2` [Example 155] gave a pIC50 of 8.14. `C=CC(=O)NC1CC2(C1)CC(n1nc(-c3ccc(Oc4ccccc4)cc3)c(C(N)=O)c1N)C2` (stereo not drawn) [Example 97]: the pIC50 was 9.10. On to `C=CC(=O)N1CC[C@]2(C1)C[C@H](n1nc(-c3ccc(OC)cc3)c(C(N)=O)c1N)C2` [Example 153], for which the pIC50 was 8.64. Turning to `C=CC(=O)N1CCC[C@@H](n2cc(C(N)=O)c(-c3ccc(NC(=O)Nc4cccc(C)c4)cc3)n2)C1` [Example 60], the pIC50 was 7.39. With `CC#CC(=O)N1CC2(CC(n3nc(-c4ccc(OCCC)c(Cl)c4)c(C(N)=O)c3N)C2)C1` [Example 148], the pIC50 was 8.52. In the case of `C=CC(=O)N1CCC[C@@H](n2cc(C(N)=O)c(-c3ccc(Oc4ccc(Cl)c(F)c4)cc3)n2)C1` [Example 66] it was 7.37; in that of `CC#CC(=O)N1CC2(CC(n3nc(-c4ccc(F)c(OCC(F)(F)F)c4)c(C(N)=O)c3N)C2)C1` [Example 149], 7.00; in that of `C=CC(=O)N1CCC2(CC1)CC(n1cc(C(N)=O)c(-c3ccc(Oc4ccccc4)cc3)n1)C2` [Example 86], 7.02. In turn, `CC#CC(=O)N1CC[C@]2(C1)C[C@H](n1nc(-c3ccc(OC)cc3)c(C(N)=O)c1N)C2` [Example 154] gave a pIC50 of 9.22. In turn, `C=CC(=O)N1CC2(CC(n3nc(-c4ccc(F)c(C(F)(F)F)c4)c(C(N)=O)c3N)C2)C1` [Example 144] had a pIC50 of 7.14. In the case of `C=CC(=O)NCCn1cc(C(N)=O)c(-c2ccc(Oc3ccccc3)cc2)n1` [Example 39] it was 6.54; in that of `C=CC(=O)N1CCC[C@@H](n2cc(C(N)=O)c(-c3cccc(NS(C)(=O)=O)c3)n2)C1` [Example 17], 5.32; in that of `C=CC(=O)N1CCC[C@@H](n2cc(C(N)=O)c(-c3ccc(NC(=O)c4cc5ccccc5n4C)c(OC)c3)n2)C1` [Example 25], 8.29.

`C=CC(=O)N1CCC[C@@H](n2cc(C(N)=O)c(-c3ccc(OCc4ccccc4)cc3)n2)C1` [Example 2]: the pIC50 was 7.48. The same measure for `CC#CC(=O)N1CC[C@]2(C1)C[C@H](n1nc(-c3ccc(OCC)cc3)c(C(N)=O)c1N)C2` [Example 167]: 9.05; for `C=CC(=O)N1CCC[C@@H](n2cc(C(N)=O)c(-c3cccc(OCc4ccccc4)c3)n2)C1` [Example 3]: 6.09. Turning to `C=CC(=O)N1CCC[C@@H](n2cc(C(N)=O)c(-c3ccc(Oc4ccc(C)cc4)cc3)n2)C1` [Example 71], the pIC50 was 7.85. In turn, `NC(=O)c1cn([C@@H]2CCCN(C(=O)C#CCN3CCOCC3)C2)nc1-c1ccc(Oc2ccccc2)cc1` [Example 93] had a pIC50 of 7.48. `CC#CC(=O)N1CC2(CC(n3nc(-c4ccc(F)c(C(F)(F)F)c4)c(C(N)=O)c3N)C2)C1` [Example 143] showed a pIC50 of 7.43. `C=CC(=O)N1CCC[C@@H](n2cc(C(N)=O)c(-c3ccc(Oc4cccc(C#N)c4)cc3)n2)C1` [Example 76] gave a negative logarithm of the IC50 (pIC50) of 7.21.

Compound `C=CC(=O)N1CC2(CC(n3nc(-c4ccc(Cl)c(C(F)(F)F)c4)c(C(N)=O)c3N)C2)C1` [Example 135] had a pIC50 of 7.59. `C=CC(=O)N1CCC[C@@H](n2cc(C(N)=O)c(-c3ccc(-c4ccccc4)cc3)n2)C1` [Example 1]: the pIC50 was 5.59. The same measure for `CC#CC(=O)N1CC2(CC(c3nc(-c4ccc(Oc5ccccc5)cc4)c(C(N)=O)s3)C2)C1` [Example 58]: 8.96; for `C=CC(=O)N1CCC[C@@H](n2cc(C(N)=O)c(-c3ccc(OCc4ccccn4)c(Cl)c3)n2)C1` [Example 21]: 7.01. `C=CC(=O)N1CC2(CC(c3nc(-c4ccc(Oc5ccccc5)cc4)c(C(N)=O)s3)C2)C1` [Example 57] gave a pIC50 of 8.49.

`CC#CC(=O)N1CC[C@]2(C1)C[C@H](n1nc(-c3ccc(OCCC)cc3)c(C(N)=O)c1N)C2` [Example 140]: the negative logarithm of the IC50 (pIC50) was 9.05. In the case of `CN(C)C/C=C/C(=O)N1CC[C@]2(C1)C[C@H](n1cc(C(N)=O)c(-c3ccc(Oc4ccccc4)cc3)n1)C2` [Example 37] it was 7.42. As to `C=CC(=O)N1CC2(CC(n3nc(-c4ccc(Oc5ccccc5)cn4)c(C(N)=O)c3N)C2)C1` [Example 103], the pIC50 was 8.55.

With `C=CC(=O)N1CCC[C@@H](n2cc(C(N)=O)c(-c3ccc(Oc4ccc(Cl)c(Cl)c4)c(OC)c3)n2)C1` [Example 20], the pIC50 is 7.52. Compound `C=CC(=O)NCCn1nc(-c2ccc(Oc3ccccc3)cc2)c(C(N)=O)c1N` [Example 44] showed a pIC50 of 9.00. The same measure for `C=CC(=O)N1CCC[C@@H](n2cc(C(N)=O)c(-c3ccc4occc4c3)n2)C1` [Example 16]: 6.24; for `C=CC(=O)N1CC[C@]2(C1)C[C@H](n1nc(-c3ccc(Oc4ccccn4)cc3)c(C(N)=O)c1N)C2` [Example 152]: 8.82; for `C=CC(=O)N1CCCC(Cn2cc(C(N)=O)c(-c3ccc(Oc4ccccc4)cc3)n2)C1` (stereo not drawn) [Example 45]: 8.00. In turn, `NC(=O)c1c(-c2ccc(Oc3ccccc3)cc2)nn(C2CC3(C2)CN(C(=O)/C=C/CN2CCOCC2)C3)c1N` [Example 77] had a pIC50 of 8.72. For `C=CC(=O)N1CC[C@]2(C1)C[C@H](n1nc(-c3ccc(OC4CC4)cc3)c(C(N)=O)c1N)C2` [Example 156], the pIC50 was 7.80. For `CC#CC(=O)N1CCC(n2cc(C(N)=O)c(-c3ccc(Oc4ccccc4)cc3)n2)CC1` [Example 56], the pIC50 was 7.82.

For `C=CC(=O)N1CCC(Cn2cc(C(N)=O)c(-c3ccc(Oc4ccccc4)cc3)n2)CC1` [Example 47], the pIC50 was 8.00. Compound `C=CC(=O)N1CCC[C@@H](n2cc(C(N)=O)c(-c3ccc(Oc4ccc(C#N)cc4)cc3)n2)C1` [Example 75] had a pIC50 of 5.18.

Compound `C=CC(=O)N1CCC[C@@H](n2cc(C(N)=O)c(-c3ccc(Oc4ccccc4)c(F)c3)n2)C1` [Example 23] showed a pIC50 of 8.00. The same measure for `CC#CC(=O)N1CC2(CC(n3nc(-c4ccc(Cl)c(C(F)(F)F)c4)c(C(N)=O)c3N)C2)C1` [Example 136]: 7.85; for `C=CC(=O)N1CCC[C@@H](c2nc(-c3ccc(Oc4ccccc4)cc3)c(C(N)=O)s2)C1` [Example 51]: 8.77. `C=CC(=O)N1CC2(CC(n3nc(-c4ccc(OCC(F)(F)F)cc4)c(C(N)=O)c3N)C2)C1` [Example 116] had a negative logarithm of the IC50 (pIC50) of 7.92. Compound `C=CC(=O)N1CCC[C@@H](n2cc(C(N)=O)c(-c3ccc(Oc4cccc(S(C)(=O)=O)c4)cc3)n2)C1` [Example 65] showed a pIC50 of 6.48. On to `CC#CC(=O)N1CC[C@]2(C1)C[C@H](n1nc(-c3ccc(OC4CC4)cc3)c(C(N)=O)c1N)C2` [Example 157], for which the pIC50 was 8.70. With `CNC(=O)/C=C/CN1CCC[C@@H](n2cc(C(N)=O)c(-c3ccc(Oc4ccccc4)cc3)n2)C1` [Example 90], the negative logarithm of the IC50 (pIC50) was 7.05. `NC(=O)c1c(-c2ccc(Oc3ccccc3)cc2)nn([C@H]2C[C@]3(CCN(C(=O)/C=C/CN4CCOCC4)C3)C2)c1N` [Example 99] had a negative logarithm of the IC50 (pIC50) of 8.49. As to `C=CC(=O)NCCc1nc(-c2ccc(Oc3ccccc3)cc2)c(C(N)=O)s1` [Example 34], the pIC50 is 7.68. Compound `C=CC(=O)N1CC2(CC(n3nc(-c4ccc(OC(F)(F)F)cc4)c(C(N)=O)c3N)C2)C1` [Example 109] had a pIC50 of 7.62. `CC#CC(=O)N1CC[C@]2(C1)C[C@@H](n1cc(C(N)=O)c(-c3ccc(Oc4ccccc4)cc3)n1)C2` [Example 89] gave a pIC50 of 7.47.

Turning to `CN(C)C/C=C/C(=O)N1CC2(CC(n3nc(-c4ccc(Oc5ccccc5)cc4)c(C(N)=O)c3N)C2)C1` [Example 100], the pIC50 was 9.10.

For the compound `C=CC(=O)N1CCC[C@@H](n2cc(C(N)=O)c(-c3ccc(Oc4cccc(Cl)c4)cc3)n2)C1` [Example 68], the pIC50 was 7.39. Consider `C=CC(=O)N1CCC[C@@H](n2cc(C(N)=O)c(-c3ccc(OCCOC)cc3)n2)C1` [Example 95], for which the pIC50 is 5.80. `CC#CC(=O)N1CC2(CC(n3nc(-c4ccc(Oc5ccccc5)cn4)c(C(N)=O)c3N)C2)C1` [Example 110] showed a pIC50 of 9.06. The same measure for `CC#CC(=O)N1CC2(CC(n3nc(-c4ccc(C(F)(F)F)c(F)c4)c(C(N)=O)c3N)C2)C1` [Example 141]: 7.85; for `C=CC(=O)N1CCC[C@@H](n2cc(C(N)=O)c(-c3ccc(Oc4ccccc4)cc3)n2)C1` [Example 29]: 8.49; for `C=CC(=O)N1CC2(CC(n3nc(-c4ccc(OC(C)C)c(Cl)c4)c(C(N)=O)c3N)C2)C1` [Example 124]: 8.00. Consider `C=CC(=O)N1CC[C@]2(C1)C[C@H](n1nc(-c3ccc(F)c(OCC(F)(F)F)c3)c(C(N)=O)c1N)C2` [Example 146], for which the pIC50 is 7.66. `C=CC(=O)N1CC[C@]2(C1)C[C@H](n1nc(-c3ccc(Oc4ccccc4)cc3)c(C(N)=O)c1N)C2` [Example 80] showed a pIC50 of 9.03. The same measure for `CC#CC(=O)N1CCC[C@@H](c2nc(-c3ccc(Oc4ccccc4)cc3)c(C(N)=O)[nH]2)C1` [Example 59]: 8.05; for `CC#CC(=O)N1CCC[C@H]1Cc1nc(-c2ccc(Oc3ccccc3)cc2)c(C(N)=O)s1` [Example 53]: 7.85; for `C=CC(=O)N1CCC[C@H]1Cc1nc(-c2ccc(Oc3ccccc3)cc2)c(C(N)=O)s1` [Example 50]: 8.52.
